The first test has as its target Beta Secretase enzyme (BACE) (Homo sapiens, UniProt P56817). Description: In vitro enzymatic BACE FRET (fluorescence resonance energy transfer) assay. Conditions: BACE 1 FRET assay (uM). The format is biochemical. How it is done: In Vitro Enzymatic Bace Fret (Fluorescence Resonance Energy Transfer) Assay (Enzyme Assay Data in the Example Table I)
The assay buffer used in this screen is 0.05 M acetate, pH 4.2, 10% DMSO final, 100 uM genapol (which is a nonionic detergent, below its Critical Micelle Concentration). […] This assay is effectively started by the addition of FRET substrate (50 nM) and the combination is incubated for one hour. The FRET assay is terminated with by addition of Tris buffer, which raises the pH to neutrality, and the fluorescence is determined. The FRET substrate is a peptide with commercially available fluorophore and quencher, on opposite sides of the BACE cleavage site.
Beta Secretase enzyme (BACE), sequence (P56817 46-501, species assumed): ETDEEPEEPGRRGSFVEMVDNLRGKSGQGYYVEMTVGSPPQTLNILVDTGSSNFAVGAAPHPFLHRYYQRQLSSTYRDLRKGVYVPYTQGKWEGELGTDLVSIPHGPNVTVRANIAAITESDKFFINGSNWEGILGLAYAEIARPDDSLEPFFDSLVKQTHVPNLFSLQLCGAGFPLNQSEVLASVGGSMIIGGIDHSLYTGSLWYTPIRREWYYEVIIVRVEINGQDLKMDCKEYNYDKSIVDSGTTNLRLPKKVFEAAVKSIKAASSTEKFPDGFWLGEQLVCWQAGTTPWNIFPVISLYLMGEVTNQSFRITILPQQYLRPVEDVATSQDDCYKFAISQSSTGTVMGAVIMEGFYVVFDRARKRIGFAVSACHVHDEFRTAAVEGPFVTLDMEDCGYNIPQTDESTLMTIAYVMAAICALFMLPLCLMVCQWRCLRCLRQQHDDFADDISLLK
On to `NC1=N[C@]2(CO1)c1cc(C3=CCOCC3)ccc1Oc1ccc(-c3cccnc3F)cc12` [Example 136, (R)-2′-(3,6-dihydro-2H-pyran-4-yl)-7′-(2-fluoropyridin-3-yl)-5H-spiro[oxazole-4,9′-xanthen]-2-amine 2,2,2-trifluoroacetate], for which the IC50 is 0.0026 µM.

As for `NC1=N[C@@]2(CO1)c1cc(-c3cccnc3F)ccc1Oc1cnc(N3CCC(F)(F)CC3)cc12` [Example 137, (S)-3-(4,4-difluoropiperidin-1-yl)-7-(2-fluoropyridin-3-yl)-5′H-spiro[chromeno[2,3-c]pyridine-5,4′-oxazol]-2′-amine], the IC50 is 0.0007 µM.

On to `NC1=N[C@@]2(CO1)c1cc(-c3cccnc3F)ccc1Oc1cnc(N3CCOCC3)cc12` [Example 890, (5S)-7-(2-fluoro-3-pyridinyl)-3-(4-morpholinyl)spiro[chromeno[2,3-c]pyridine-5,4′-[1,3]oxazol]-2′-amine], for which the IC50 was 0.0013 µM.

The same test, now with this note: average IC50, enzyme assay; read-out: BACE 1 FRET assay.
With `NC1=N[C@@]2(CO1)c1cc(-c3cc(F)cnc3F)ccc1Oc1cnc(-c3ccnc(F)c3)cc12` [Example 549, (5S)-7-(2,5-difluoro-3-pyridinyl)-3-(2-fluoro-4-pyridinyl)spiro[chromeno[2,3-c]pyridine-5,4′-[1,3]oxazol]-2′-amine], the IC50 amounted to 0.029 µM.

For the compound `NC1=N[C@]2(CS1)c1cc(-c3cccc(C4=CCOCC4)c3)ccc1Oc1cnc(C3=CCOCC3)cc12` [Example 596, (5R)-3-(3,6-dihydro-2H-pyran-4-yl)-7-(3-(3,6-dihydro-2H-pyran-4-yl)phenyl)spiro[chromeno[2,3-c]pyridine-5,4′-[1,3]thiazol]-2′-amine], the IC50 stood at 0.0478 µM.

In the case of `CC(C)(C#N)COc1cc(F)c2c(c1)[C@]1(COC(N)=N1)c1cc(-c3c(F)ccnc3F)ccc1O2` [Example 566, 3-(((4S)-2-amino-7′-(2,4-difluoro-3-pyridinyl)-4′-fluorospiro[1,3-oxazole-4,9′-xanthen]-2′-yl)oxy)-2,2-dimethylpropanenitrile], the IC50 is 0.002 µM.

In the case of `NC1=N[C@@]2(CO1)c1cc(-c3cccc(Cl)c3)ccc1Oc1cnc(N3CCC(F)(F)C3)cc12` [Example 432, (5S)-7-(3-chlorophenyl)-3-(3,3-difluoro-1-pyrrolidinyl)spiro[chromeno[2,3-c]pyridine-5,4′-[1,3]oxazol]-2′-amine], the IC50 worked out at 0.002 µM.

In the case of “(4S)-4′-fluoro-7′-(2-fluoro-3-pyridinyl)-2′-(6-methoxy-3-pyridinyl)spiro[1,3-oxazole-4,9′-xanthen]-2-amine [Example 224]”, the IC50 amounted to 0.002 µM.

Regarding `NC1=N[C@@]2(CS1)c1cc(-c3cncc(F)c3)ccc1Oc1cnc(Cl)cc12` [Example 595, (5S)-3-chloro-7-(5-fluoro-3-pyridinyl)spiro[chromeno[2,3-c]pyridine-5,4′-[1,3]thiazol]-2′-amine], the IC50 turned out to be 0.142 µM.

In the case of `NC1=N[C@@]2(CS1)c1cc(-c3cccnc3F)ccc1Oc1ncc(-c3cccnc3F)cc12` [Example 587, (5S)-3,7-bis (2-fluoro-3-pyridinyl)spiro[chromeno[2,3-b]pyridine-5,4′-[1,3]thiazol]-2′-amine], the IC50 came out at 0.002 µM.

`NC1=N[C@@]2(CO1)c1cc(-c3c(F)ccnc3F)ccc1Oc1cnc(Cl)cc12` [Example 399, (5S)-3-chloro-7-(2,4-difluoro-3-pyridinyl)spiro[chromeno[2,3-c]pyridine-5,4′-[1,3]oxazol]-2′-amine]: the IC50 is 0.0599 µM.

For the compound `CC1(C#Cc2cnc3c(c2)[C@]2(CSC(N)=N2)c2cc(-c4cccnc4F)ccc2O3)COC1` [Example 586, (5S)-7-(2-fluoro-3-pyridinyl)-3-((3-methyl-3-oxetanyl)ethynyl)spiro[chromeno[2,3-b]pyridine-5,4′-[1,3]thiazol]-2′-amine], the IC50 is 0.002 µM.

For `NC1=N[C@@]2(CO1)c1cc(-c3c(F)ccnc3F)ccc1Oc1cnc(-c3ccncc3)cc12` [Example 398, (5S)-7-(2,4-difluoro-3-pyridinyl)-3-(4-pyridinyl)spiro[chromeno[2,3-c]pyridine-5,4′-[1,3]oxazol]-2′-amine], the IC50 stood at 0.002 µM.

For `NC1=N[C@@]2(CO1)c1cc(-c3cncc(F)c3)ccc1Oc1c(F)cc([C@H]3CCOC3)cc12` [Example 296, (4S)-4′-fluoro-7′-(5-fluoro-3-pyridinyl)-2′-((3R)-tetrahydro-3-furanyl)spiro[1,3-oxazole-4,9′-xanthen]-2-amine], the IC50 was determined as 0.0072 µM.

Take `NC1=N[C@@]2(CO1)c1cc(-c3cccnc3F)ccc1Oc1c(F)cc([C@@H]3CCOC3)cc12` [Example 300, (4S)-4′-fluoro-7′-(2-fluoro-3-pyridinyl)-2′-((3S)-tetrahydro-3-furanyl)spiro[1,3-oxazole-4,9′-xanthen]-2-amine]: the IC50 amounted to 0.0023 µM.

Turning to “(4S)-4′-fluoro-7′-(2-fluoro-3-pyridinyl)-2′-(6-methyl-3-pyridinyl)spiro[1,3-oxazole-4,9′-xanthen]-2-amine [Example 223]”, the IC50 was 0.002 µM.

For the compound `NC1=N[C@@]2(CS1)c1cc(-c3cccc(Cl)c3)ccc1Oc1cnc(Cl)cc12` [Example 593, (5S)-3-chloro-7-(3-chlorophenyl)spiro[chromeno[2,3-c]pyridine-5,4′-[1,3]thiazol]-2′-amine], the IC50 is 0.0316 µM.

Turning to `NC1=N[C@@]2(CO1)c1cc(-c3cccnc3F)ccc1Oc1c(F)cc([C@H]3CCOC3)cc12` [Example 299, (4S)-4′-fluoro-7′-(2-fluoro-3-pyridinyl)-2′-((3R)-tetrahydro-3-furanyl)spiro[1,3-oxazole-4,9′-xanthen]-2-amine], the IC50 stood at 0.0028 µM.

As to `CC(C)(C)C#Cc1cc2c(cn1)Oc1ccc(-c3c(F)ccnc3F)cc1[C@@]21COC(N)=N1` [Example 165, (5S)-7-(2,4-difluoro-3-pyridinyl)-3-(3,3-dimethyl-1-butyn-1-yl)spiro[chromeno[2,3-c]pyridine-5,4′-[1,3]oxazol]-2′-amine], the IC50 worked out at 0.002 µM.

With `NC1=N[C@@]2(CS1)c1cc(Br)ccc1Oc1c2cc(Cl)nc1F` [Example 597, (5S)-7-bromo-3-chloro-1-fluorospiro[chromeno[2,3-c]pyridine-5,4′-[1,3]thiazol]-2′-amine], the IC50 is 4.5 µM.

On to `NC1=N[C@@]2(CO1)c1cc(-c3ccccc3)ncc1Oc1c(F)cc(C3=CCOCC3)cc12` [Example 309, (5S)-7-(3,6-dihydro-2H-pyran-4-yl)-9-fluoro-3-phenylspiro[chromeno[2,3-c]pyridine-5,4′-[1,3]oxazol]-2′-amine], for which the IC50 was determined as 0.0172 µM.

`NC1=N[C@@]2(CO1)c1cc(-c3c(F)ccnc3F)ccc1Oc1cnc(-c3ccnc(F)c3)cc12` [Example 397, (5S)-7-(2,4-difluoro-3-pyridinyl)-3-(2-fluoro-4-pyridinyl)spiro[chromeno[2,3-c]pyridine-5,4′-[1,3]oxazol]-2′-amine]: the IC50 was found to be 0.002 µM.

`NC1=N[C@]2(CO1)c1cc(-c3cccc(Cl)c3)ccc1Oc1cnc(N3CCC(F)(F)C3)cc12` [Example 433, (5R)-7-(3-chlorophenyl)-3-(3,3-difluoro-1-pyrrolidinyl)spiro[chromeno[2,3-c]pyridine-5,4′-[1,3]oxazol]-2′-amine]: the IC50 turned out to be 0.025 µM.

As for `NC1=N[C@@]2(CO1)c1cc(-c3cccnc3F)ccc1Oc1c2cc(-c2ccnc(F)c2)nc1F` [Example 152, (5S)-1-fluoro-7-(2-fluoro-3-pyridinyl)-3-(2-fluoro-4-pyridinyl)spiro[chromeno[2,3-c]pyridine-5,4′-[1,3]oxazol]-2′-amine], the IC50 was determined as 0.002 µM.

As to `NC1=N[C@@]2(CO1)c1cc(-c3ccc(F)cc3)ccc1Oc1cnc(C3CCOCC3)cc12` [Example 400, (5S)-7-(4-fluorophenyl)-3-(tetrahydro-2H-pyran-4-yl)spiro[chromeno[2,3-c]pyridine-5,4′-[1,3]oxazol]-2′-amine], the IC50 was found to be 0.0709 µM.

As for `NC1=N[C@@]2(CS1)c1cc(-c3cccnc3F)ccc1Oc1cnc(Cl)cc12` [Example 594, (5S)-3-chloro-7-(2-fluoro-3-pyridinyl)spiro[chromeno[2,3-c]pyridine-5,4′-[1,3]thiazol]-2′-amine], the IC50 was 0.0531 µM.

`NC1=N[C@@]2(CO1)c1cc(-c3c(F)ccnc3F)ccc1Oc1c(F)cc(C3=CCOCC3)cc12` [Example 565, (4S)-7′-(2,4-difluoro-3-pyridinyl)-2′-(3,6-dihydro-2H-pyran-4-yl)-4′-fluoro spiro[1,3-oxazole-4,9′-xanthen]-2-amine]: the IC50 was found to be 0.002 µM.

Turning to `NC1=N[C@@]2(CO1)c1cc(-c3cccnc3)ccc1Oc1c2cc(-c2ccnc(F)c2)nc1F` [Example 491, (5S)-1-fluoro-3-(2-fluoro-4-pyridinyl)-7-(3-pyridinyl)spiro[chromeno[2,3-c]pyridine-5,4′-[1,3]oxazol]-2′-amine], the IC50 was 0.002 µM.

For `NC1=N[C@@]2(CO1)c1cc(-c3cccnc3)c(F)cc1Oc1c(F)cc(C3=CCCOC3)cc12` [Example 298, (4S)-7′-(5,6-dihydro-2H-pyran-3-yl)-3′,5′-difluoro-2′-(3-pyridinyl)spiro[1,3-oxazole-4,9′-xanthen]-2-amine], the IC50 was determined as 0.0968 µM.

Regarding `NC1=N[C@@]2(CO1)c1cc(-c3cncc(F)c3)ccc1Oc1c(F)cc([C@@H]3CCOC3)cc12` [Example 297, (4S)-4′-fluoro-7′-(5-fluoro-3-pyridinyl)-2′-((3S)-tetrahydro-3-furanyl)spiro[1,3-oxazole-4,9′-xanthen]-2-amine], the IC50 came out at 0.0052 µM.

In the case of “(4S)-4′-fluoro-7′-(2-fluoro-3-pyridinyl)-2′-(2-oxa-6-azaspiro[3.4]oct-6-yl)spiro[1,3-oxazole-4,9′-xanthen]-2-amine [Example 857]”, the IC50 is under 0.002 µM.

(Values after US8883782B2, “Spiro-tetracyclic ring compounds as beta-secretase modulators and methods of use” (Amgen Inc., priority 2010, dated 2014).)
